Columns and labels:
[1] = tested on: Glo-Response ARE-luc2P HEK293 cell line; assay: ARE luciferase reporter cell-based assay; conditions: Homo sapiens, HEK293, 24 h, average of results obtained;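 note: luciferase signal tracks Nrf2 activation of the ARE once compounds disrupt KEAP1-Nrf2 binding, read with One-Glo reagent, DMSO serving as low control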
Experimental: The ARE assay utilizes a luciferase reporter cell line where the signal is proportional to NrF2 activation of the ARE. The cell line is commercially available from Promega and was prepared by stably transfecting HEK293 cells with a vector (pGL4.11) which contains the ARE response element upstream of a minimal promoter. The promoter drives expression of luc2 firefly luciferase gene. Upon disruption of KEAP1-Nrf2 binding by compound, Nrf2 translocates into the nucleus where it binds to the ARE and activates transcription of luciferase.
The materials used in this ARE assay are as follows: Glo-Response ARE-luc2P HEK293 cell line and One-Glo Luciferase Assay System were purchased from Promega (Madison, Wis.). Dulbecco's Modified Eagle medium ((DMEM), low glucose, GlutaMAX, pyruvate), fetal bovine serum (certified, heat inactivated), hygromycin B, Dulbecco's phosphate-buffered saline were purchased from Life Technologies (Grand Island, N.Y.). Penicillin, streptomycin solution (100×) and 0.05% trypsin-EDTA were purchased from Corning (Manassas, Va.). DMSO was purchased from EMD Millipore.
The ARE assay protocol is as follows: cells were maintained in growth medium (DMEM+10% FBS, 200 μg/mL hygromycin B, p-s) between 20-90% confluency by splitting twice per week. One day before the assay, cells were trypsinized, counted to determine viable cell count, and re-suspended in assay medium (DMEM+10% FBS, p-s) at 250,000 cells/mL. […] 100% DMSO was used as the low control. A 11-point dose series of the control compound was included on every plate. Compounds were spotted to an intermediate plate (Greiner #781280 V-bottom 384 well plate) using the Echo acoustic dispenser (Labscyte San Jose, Calif.). Spot size was 240 nL.
On the day of the assay, 60 mL per well of assay medium was added to the pre-spotted plate to make 2× compound stocks using the Combi (Thermo Waltham, Mass.). Compound and medium were mixed on the Janus and 20 mL of 2×compound stock was added to the cell plate which already contained 20 mL of assay medium from cell plating. […] The plates were returned to the tissue culture incubator for 24 hours.
The next day, luciferase activity was measured according to the manufacturer's protocol for One-Glo luciferase reagent. The plates were removed from the incubator and allowed to equilibrate to room temperature for 30 min. Forty microliters of One-Glo reagent (equilibrated to room temperature) was added per well using the Combi. The plates were mixed on an orbital shaker for 3 min. Luminescence was read on the BMG Pherastar multiplate reader (Cary, N.C.) using the luminescence protocol (1 sec interval).
The dose-response data were analyzed in Genedata Screener using 4PL nonlinear regression model. Raw luminescence counts as well as normalized values were used for data analysis.

[2] = molecular target: Kelch domain of human KEAP1 (321-624 aa) (Homo sapiens (Human), UniProt Q14145); assay: KEAP1 KELCH ThermoFluor binding assay; conditions: KEAP Kelch […], 1,8-ANS, pH 7.0, average of results obtained, read-out: Tf Kd;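 note: Ligand-induced melting temperature shift of E. coli-expressed KEAP1 Kelch protein, Kd estimated from concentration-response curves of ΔTm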
Kelch domain of human KEAP1 (321-624 aa), sequence (Q14145 321-624): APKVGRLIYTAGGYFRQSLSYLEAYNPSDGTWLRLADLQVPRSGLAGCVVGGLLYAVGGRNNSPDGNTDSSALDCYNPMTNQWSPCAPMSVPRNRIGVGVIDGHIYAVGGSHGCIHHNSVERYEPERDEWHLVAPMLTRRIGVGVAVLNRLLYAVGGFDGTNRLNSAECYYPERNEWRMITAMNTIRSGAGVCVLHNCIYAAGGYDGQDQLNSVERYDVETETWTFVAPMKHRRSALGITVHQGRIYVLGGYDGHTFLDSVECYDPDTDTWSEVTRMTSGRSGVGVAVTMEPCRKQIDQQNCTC

Kd [2] [nM]	SMILES	EC50 [1] [nM]
5.5	Cc1ccc([C@@H](CC(=O)O)c2ccc3c(nnn3CC3CC3)c2C)cc1CN1C[C@@]2(C)CCCN2c2ncccc2S1(=O)=O (single isomer, unassigned) [Example 81, (*R)-3-(1-(Cyclopropylmethyl)-4-methyl-1H-benzo[d][1,2,3]triazol-5-yl)-3-(4-methyl-3-(((*R)-7a-methyl-5,5-dioxido-7a,8,9,10-tetrahydropyrido[2,3-f]pyrrolo[2,1-d][1,2,5]thiadiazepin-6(7H)-yl)methyl)phenyl)propanoic Acid]	176
80	Cc1ccc([C@H](CC(=O)O)c2ccc3c(nnn3CC3CC3)c2C)cc1CN1C[C@@]2(C)CCCN2c2ncccc2S1(=O)=O (single isomer, unassigned) [Example 82, (*S)-3-(1-(Cyclopropylmethyl)-4-methyl-1H-benzo[d][1,2,3]triazol-5-yl)-3-(4-methyl-3-(((*R)-7a-methyl-5,5-dioxido-7a,8,9,10-tetrahydropyrido[2,3-f]pyrrolo[2,1-d][1,2,5]thiadiazepin-6(7H)-yl)methyl)phenyl)propanoic Acid]	3350
< 1	Cc1c([C@@H](CC(=O)O)c2ccc(Cl)c(CN3CC4CCCCN4c4ncccc4S3(=O)=O)c2)ccn2c(C(F)(F)F)nnc12 (single isomer, unassigned) [Example 84, (*S)-3-(4-Chloro-3-(((*S)-5,5-dioxido-7,7a,8,9,10,11-hexahydro-6H-dipyrido[2,1-d:2′,3′-][1,2,5]thiadiazepin-6-yl)methyl)phenyl)-3-(8-methyl-3-(trifluoromethyl)-[1,2,4]triazolo[4,3-a]pyridine-7-yl)propanoic Acid]	80.5
2.2	Cc1c([C@H](CC(=O)O)c2ccc(Cl)c(CN3CC4CCCCN4c4ncccc4S3(=O)=O)c2)ccn2c(C(F)(F)F)nnc12 (single isomer, unassigned) [Example 85, (*R)-3-(4-Chloro-3-(((*S)-5,5-dioxido-7,7a,8,9,10,11-hexahydro-6H-dipyrido[2,1-d:2′,3′-f][1,2,5]thiadiazepin-6-yl)methyl)phenyl)-3-(8-methyl-3-(trifluoromethyl)-[1,2,4]triazolo[4,3-a]pyridine-7-yl)propanoic Acid]	1510
1.3	Cc1c([C@H](CC(=O)O)c2ccc(Cl)c(CN3CC4(COC4)Oc4ncccc4S3(=O)=O)c2)ccn2c(C(F)(F)F)nnc12 (single isomer, unassigned) [Example 87, (*R)-3-(4-Chloro-3-((1′,1′-dioxoidospiro[oxetane-3,4′-pyrido[2,3-b][1,4,5]oxathiazepin]-2′(3′H)-yl)methyl)phenyl)-3-(8-methyl-3-(trifluoromethyl)-[1,2,4]triazolo[4,3-a]pyridine-7-yl)propanoic Acid]	2530
0.01	Cc1c([C@@H](CC(=O)O)c2ccc(Cl)c(CN3CC4(COC4)Oc4ncccc4S3(=O)=O)c2)ccn2c(C(F)(F)F)nnc12 (single isomer, unassigned) [Example 88, (*S)-3-(4-Chloro-3-((1′,1′-dioxoidospiro[oxetane-3,4′-pyrido[2,3-b][1,4,5]oxathiazepin]-2′(3′H)-yl)methyl)phenyl)-3-(8-methyl-3-(trifluoromethyl)-[1,2,4]triazolo[4,3-a]pyridine-7-yl)propanoic Acid]	> 20000
< 1	Cc1cnc2c(c1)S(=O)(=O)N(Cc1cc([C@H](CC(=O)O)c3ccn4c(C(F)(F)F)nnc4c3C)ccc1Cl)CC1CCCCN21 (single isomer, unassigned) [Example 91, (*S)-3-(4-Chloro-3-(((*S)-3-methyl-5,5-dioxido-7,7a,8,9,10,11-hexahydro-6H-dipyrido[2,1-d:2′,3′-f][1,2,5]thiadiazepin-6-yl)methyl)phenyl)-3-(8-methyl-3-(trifluoromethyl)-[1,2,4]triazolo[4,3-a]pyridine-7-yl)propanoic Acid]	14.4
< 1	Cc1c([C@H](CC(=O)O)c2ccc(Cl)c(CN3CC4CCCCN4c4ncc(F)cc4S3(=O)=O)c2)ccn2c(C(F)(F)F)nnc12 (single isomer, unassigned) [Example 93, (*R)-3-(4-Chloro-3-(((*S)-3-fluoro-5,5-dioxido-7,7a,8,9,10,11-hexahydro-6H-dipyrido[2,1-d:2′,3′-f][1,2,5]thiadiazepin-6-yl)methyl)phenyl)-3-(8-methyl-3-(trifluoromethyl)-[1,2,4]triazolo[4,3-a]pyridine-7-yl)propanoic Acid]	10
< 1	Cc1c([C@@H](CC(=O)O)c2ccc(Cl)c(CN3CC4CCCCN4c4ncc(F)cc4S3(=O)=O)c2)ccn2c(C(F)(F)F)nnc12 (single isomer, unassigned) [Example 94, (*S)-3-(4-Chloro-3-(((*S)-3-fluoro-5,5-dioxido-7,7a,8,9,10,11-hexahydro-6H-dipyrido[2,1-d:2′,3′-f][1,2,5]thiadiazepin-6-yl)methyl)phenyl)-3-(8-methyl-3-(trifluoromethyl)-[1,2,4]triazolo[4,3-a]pyridine-7-yl)propanoic Acid]	54.2
< 1	Cc1ccc([C@H](CC(=O)O)c2ccn3c(C(F)(F)F)nnc3c2C)cc1CN1CC2(CC2)Oc2nc(NCCO)ccc2S1(=O)=O (single isomer, unassigned) [Example 101, (*S)-3-(3-((7′-((2-Hydroxyethyl)amino-1′,1′-dioxidospiro[cyclopropane-1.4′-pyrido[2,3-b][1,4,5]oxathiazepin]-2′(3′H)-yl)methyl)-4-methylphenyl)-3-(8-methyl-3-(trifluoromethyl)-[1,2,4]triazolo[4,3-a]pyridinn-7-yl)propanoic Acid]	577
< 1	Cc1ccc([C@H](CC(=O)O)c2ccn3c(C(F)(F)F)nnc3c2C)cc1CN1CC2(CC2)Oc2nc(NCCCO)ccc2S1(=O)=O (single isomer, unassigned) [Example 102]	696
1.6	Cc1ccc([C@H](CC(=O)O)c2ccn3c(C(F)(F)F)nnc3c2C)cc1CN1CC2(CC2)Oc2nc(O)ccc2S1(=O)=O (single isomer, unassigned) [Example 103, (*S)-3-(3-((7′-Hydroxy-1′,1′-dioxidospiro[cyclopropane-1,4′-pyrido[2,3,-b][1,4,5]oxathiazepin]-2′(3′H)-yl)methyl)-4-methylphenyl)-3-(8-methyl-3-(trifluoromethyl)-[1,2,4]triazolo[4,3-a]pyridine-7-yl)propanoic Acid]	9130
16	Cc1cnc2c(c1)S(=O)(=O)N(Cc1cc([C@H](CC(=O)O)c3ccn4c(C(F)(F)F)nnc4c3C)ccc1C#N)CC1(CC1)O2 (single isomer, unassigned) [Example 105, (*S)-3-(4-Cyano-3-((8′-methyl-1′,1′-dioxidospiro[cyclopropane-1,4′-pyrido[2,3-b][1,4,5]oxathiazepin]-2′(3′H)-yl)methyl)phenyl)-3-(8-methyl-3-(trifluoromethyl)-[1,2,4]trizolo[4,3-a]pyridine-7-yl)propanoic Acid]	14400
21	Cc1cnc2c(c1)S(=O)(=O)N(Cc1cc([C@@H](CC(=O)O)c3ccn4c(C(F)(F)F)nnc4c3C)ccc1C#N)CC1(CC1)O2 (single isomer, unassigned) [Example 106, (*R)-3-(4-Cyano-3-((8′-methyl-1′,1′-dioxidospiro[cyclopropane-1,4′-pyrido[2,3-b][1,4,5]oxathiazepin]-2′(3′H)-yl)methyl)phenyl)-3-(8-methyl-3-(trifluoromethyl)-[1,2,4]trizolo[4,3-a]pyridine-7-yl)propanoic Acid]	> 20000
< 1	COCCCNc1ccc2c(n1)OC1(CC1)CN(Cc1cc([C@H](CC(=O)O)c3ccn4c(C(F)(F)F)nnc4c3C)ccc1C)S2(=O)=O (single isomer, unassigned) [Example 107, (*S)-3-(3-((7′-((3-Methoxypropyl)amino)-1′,1′-dioxidospiro[cyclopropane-1,4′-pyrido[2,3-b][1,4,5]oxathiazepin]-2′(3′H)-yl)methyl)-4-methylphenyl)-3-(8-methyl-3-(trifluoromethyl)-[1,2,4]triazolo[4,3-a]pyridine-7-yl)propanoic Acid]	259
< 1	Cc1ccc([C@H](CC(=O)O)c2ccn3c(C(F)(F)F)nnc3c2C)cc1CN1CC2(CC2)Oc2nc(N(C)CCCO)ccc2S1(=O)=O (single isomer, unassigned) [Example 108, (*S)-3-(-3-((7′-((3-Hydroxypropyl)(methyl)amino)-1′,1′-dioxidospiro[cyclopropane-1,4′-pyrido[2,3-b][1,4,5]oxathiazepin]-2′(3′H)-yl)methyl)-4-methylphenyl)-3-(8-methyl-3-(trifluoromethyl)-[1,2,4[triazolo[4,3-a]pyridine-7-yl)propanoic Acid]	406
< 1	Cc1ccc([C@H](CC(=O)O)c2ccn3c(C(F)(F)F)nnc3c2C)cc1CN1CC2(CC2)Oc2nc(NCCN3CCOCC3)ccc2S1(=O)=O (single isomer, unassigned) [Example 111, (*S)-3-(4-Methyl-((7′-((2-morpholinoethyl)amino)-1′,1′-dioxidospiro[cyclopropane-1,4′-pyrido[2,3-b][1,4,5]oxathiazepin]-2′(3′H)-yl)methyl)-4-methylphenyl)-3-(8-methyl-3-(trifluoromethyl)-[1,2,4 [triazolo[4,3-a]pyridine-7-yl)propanoic Acid]	588

SMILES	Kd [2] [nM]	EC50 [1] [nM]
Cc1ccc([C@H](CC(=O)O)c2ccn3c(C(F)(F)F)nnc3c2C)cc1CN1CC2(COC2)Oc2ccc(F)cc2S1(=O)=O (single isomer, unassigned) [Example 99, (*S)-3-(3-((8-Fluoro-1,1-dioxidospiro[benzo[b][1,4,5]oxathiazepine-4,3′-oxetan]-2(3H)-yl)methyl]-4-methylphenyl)-3-(8-methyl-3-(trifluoromethyl)-[1,2,4]triazolo[4,3-a]pyridin-7-yl)propanoic Acid]	< 1	5.8

From patent publication US10947252B2, “Inhibitors of KEAP1-Nrf2 protein-protein interaction” (Janssen Pharmaceutica NV, priority 2018, dated 2021)
